The source of these data is US9708312B2, “Dihydropyrimidinoisoquinolinones and pharmaceutical compositions thereof for the treatment of inflammatory disorders (GPR84 antagonists)” (GALAPAGOS NV, priority 2012, dated 2017).

Assay [1] deals with T1, GPR84 (Homo sapiens, UniProt Q9NQS5).
T1 construct: expressed in transfected cells
In words: GPR84 [35S]GTPγS binding assay, Tris buffer (alternative). Conditions: 3,3′ di indolylmethane at EC80, membranes from stable cell line over expressing GPR84, read-out: Alternative GPR84 assay GTPγS IC50 (GPR84-2). It counts as biochemical. The protocol:
1.1. Cell Based Assay: GTp-γ S Binding Assay.
The following assay can be used for determination of GPR84 activation. The [^35S]GTPγS binding assay measures the level of G protein activation following agonist occupation of a GPCR, by determining the binding of the non-hydrolysable analog [^35S]GTPγS to Gα subunits.
Alternatively, the assay is performed in a 96 well plate where the following reagents are added. First 50 μL compound is added into the assay plate, followed by addition of 20 μL 3,3′ di indolylmethane at EC80 concentration (concentration which gives 80% of the activity of GPR84). In a last step, 30 μL of a mixture consisting of membranes-GTPγS-SpA beads is added [mixture consists of 20 μg/well membranes derived from stable cell line over expressing GPR84 (membranes are pre-incubated with 0.1 μM GDP for 15 min at 4° C.), 0.1 nM [^35S]GTPγS (Perkin Elmer, NEG030) and 0.5 mg/well PVT-WGA SpA beads (Perkin Elmer, RPNQ0001)]. All components are diluted in assay buffer containing 20 mM Tris pH 7.5; 5 mM MgCl2; 250 mM NaCl; 0.05% BSA; 75 ug/mL saponin Reactions are incubated for 90 min at room temperature followed by centrifugation at 2000 rpm during 15 min. Plates are read on a Topcount reader (Perkin Elmer) immediately after centrifugation (readout time, 1 min/well).
A general note: GTPγS is a poorly hydrolysed GTP analogue; its binding reports G protein activation.

The next assay relates to human neutrophils. Nature of the assay: Human neutrophil migration assay (embelin-induced chemotaxis). The format is cell-based. As to conditions: for IC50: Neutrophil, neutrophils from human buffy coats, embelin at EC80. As to the method: 2.1. Human Neutrophil Migration Assay
The effect of agonists or antagonists for GPR84 can therefore be assayed in a neutrophil migration test. In the neutrophil migration assay, neutrophils, freshly isolated from buffy coats from human volunteers, are treated with a compound for 30 min Subsequently, the neutrophils are transferred to the upper wells of a Corning HTS transwell 96 permeable support system, of which the lower wells are filled with a embelin solution at EC80 (concentration which gives 80% of the activity of GPR84). After 1 h of incubation, migration of the neutrophils towards embelin in the lower compartment can be quantified by measuring the ATP-content of the lower wells using the ATPlite luminescence ATP detection assay system (Perkin Elmer, Cat. No.: 436110).
2.1.1 Isolation of Neutrophils from Human Buffy Coat
A human buffy coat is diluted with an equal volume of ice cold DPBS. 20 mL of the diluted buffy coat is gently mixed with 4 mL of ACD buffer (140 mM citric acid, 200 mM sodium citrate and 220 mM dextrose). Then, 12 mL of the 6% dextran/0.9% NaCl solution (15 g dextran T2000 and 2.25 g NaCl dissolved in 250 mL H2O) is added to the mixture and the samples are inverted gently up to 20 times. The total volume was transferred to a new recipient and incubated at room temperature for 1 h for complete separation of the two phases to occur. The yellowish supernatant is then transferred to a clean centrifugation tube and centrifuged for 12 min at 1300 rpm and 4° C. After centrifugation, the supernatant is discarded and the remaining cell pellet is rapidly resuspended in 12 mL of ice-cold H2O for red blood cell lysis to occur. After 20 seconds, 4 mL of ice-cold 0.6 M KCl is added. Samples are mixed carefully and centrifuged for 6 min at 1300 rpm, 4° C. The supernatant is discarded and the red blood cell lysis procedure is repeated one more time. Subsequently, the cell pellet is resuspended in 4 mL of DPBS and layered over 5 mL of Lymphoprep (Nycomed Pharma, Cat. No.: 1114545) in a 15 mL centrifuge tube. After centrifugation for 12 min at 1300 rpm, 4° C., the supernatant is removed and the cell pellet, containing the neutrophils, is resuspended in 25 mL chemotaxis buffer (RPMI 1640 medium, supplemented with 10 mM HEPES; freshly made for each experiment)
A cell suspension of 8.9×10^6 cells per milliliter is prepared. 20 μL of compound solution in chemotaxis buffer is added to 180 μL cell suspension. The mixture is incubated at 37° C. for 30 min with intermediate resuspension of the cells after 15 min Following this, 70 μL cell suspension is transferred to the upper compartment of a Corning HTS transwell 96 permeable support system with 5.0 μm pore size polycarbonate membrane (Corning, Cat. No.: 3387). The receiver well of the transwell system is then filled with 200 μL chemotaxis buffer containing compound and chemotactic agent (embelin). After incubation at 37° C. in 5% CO2 for 1 h, the upper plate of the transwell system is removed and the cell suspension in the receiver plate is transferred to a 96-well V-bottom plate. 50 μL of DPBS is added to the receiver plate to prevent remaining cells from drying out. The V-bottom plate is centrifuged for 6 min at 1500 rpm. The supernatant is removed and the cells are resuspended in 50 μL DPBS. The cells are then transferred back to the receiver plate of the transwell system. After this, 100 μL ATPlite solution (Perkin Elmer, Cat. No: 436110) was added to the cells. The plate is incubated for 10 min in the dark, while shaking. […] of cell lysate is then transferred to a white 96-well plate and luminescence is measured. The detected luminescent signal is considered as linearely related to the number of cells having migrated from the upper well to the receiver well.

Assay [2] addresses T1, GPR84. In words: GPR84 [35S]GTPγS binding assay, HEPES buffer. The format is biochemical. Conditions: 3,3′ di indolylmethane at EC80, membranes from stable cell line over expressing GPR84. The method, boiled down:
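Membranes from a stable GPR84-overexpressing cell line (20 μg/well), pre-incubated with 0.1 μM GDP for 15 min at 4° C, mixed with 0.1 nM [35S]GTPγS and WGA SpA beads in 20 mM HEPES pH 7.4, 5 mM MgCl2, 250 mM NaCl, 0.05% BSA, 75 ug/mL saponin. Incubated 90 min at room temperature; scintillation proximity read after centrifugation.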

T1 sequence (Q9NQS5 whole entry): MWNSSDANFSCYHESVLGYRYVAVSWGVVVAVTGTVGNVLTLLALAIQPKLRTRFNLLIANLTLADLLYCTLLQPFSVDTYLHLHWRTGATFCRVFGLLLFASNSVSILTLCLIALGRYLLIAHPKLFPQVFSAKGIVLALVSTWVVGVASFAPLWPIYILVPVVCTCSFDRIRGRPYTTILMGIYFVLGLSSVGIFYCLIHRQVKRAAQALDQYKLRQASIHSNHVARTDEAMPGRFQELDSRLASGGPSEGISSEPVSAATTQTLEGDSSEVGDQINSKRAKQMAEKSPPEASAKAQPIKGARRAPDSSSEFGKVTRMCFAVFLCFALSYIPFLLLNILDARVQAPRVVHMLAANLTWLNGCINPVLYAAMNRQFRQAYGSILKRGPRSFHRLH

As to `COc1ccccc1-c1ccc2c(c1)CCn1c-2cc(OCC2COc3ncccc3O2)nc1=O` (stereo not drawn) [compound 126, 2-(2,3-dihydro-[1,4]dioxino[2,3-b]pyridin-2-ylmethoxy)-9-(2-methoxy-phenyl)-6,7-dihydro-pyrimido[6,1-a]isoquinolin-4-one], the half-inhibitory concentration (IC50) (in general, the concentration at which inhibition is half-maximal) on GPR84 [1] lay within 100 to 500 nM.

As for `O=c1nc(OCC2COc3ncccc3O2)cc2n1CCc1cc(-c3ccc4[nH]ncc4c3)ccc1-2` (stereo not drawn) [compound 127, 2-(2,3-Dihydro-[1,4]dioxino[2,3-b]pyridin-2-ylmethoxy)-9-(1H-indazol-5-yl)-6,7-dihydro-pyrimido[6,1-a]isoquinolin-4-one], the IC50 on GPR84 [1] fell in the range of 0.01 to 100 nM.

In the case of `O=c1nc(OCC2CCCO2)cc2n1CCc1cc(-c3ccc(Cl)s3)ccc1-2` (stereo not drawn) [compound 116, 9-(5-chloro-thiophen-2-yl)-2-(tetrahydro-furan-2-ylmethoxy)-6,7-dihydro-pyrimido[6,1-a]isoquinolin-4-one], the IC50 on GPR84 [1] is 500 to 1000 nM.

As to `O=C(COc1ccc2c(c1)CCn1c-2cc(OCC2COc3ccccc3O2)nc1=O)N1CCCC1` (stereo not drawn) [compound 74, 2-(2,3-dihydro-benzo[1,4]dioxin-2-ylmethoxy)-9-(2-oxo-2-pyrrolidin-1-yl-ethoxy)-6,7-dihydro-pyrimido[6,1-a]isoquinolin-4-one], the IC50 fell in the range of 0.01 to 100 nM with human neutrophils and 100 to 500 nM at GPR84 [2].

`O=c1nc(OCC2CCCO2)cc2n1CCc1cc(-c3cccc4ccccc34)ccc1-2` (stereo not drawn) [compound 114, 9-naphthalen-1-yl-2-(tetrahydro-furan-2-ylmethoxy)-6,7-dihydro-pyrimido[6,1-a]isoquinolin-4-one]: the IC50 at GPR84 [1] was in the range of 500 to 1000 nM.

Consider `Cc1noc(COc2ccc3c(c2)CCn2c-3cc(OCC3COc4ncccc4O3)nc2=O)n1` (stereo not drawn) [compound 135, 2-(2,3-dihydro-[1,4]dioxino[2,3-b]pyridin-2-ylmethoxy)-9-(3-methyl-[1,2,4]oxadiazol-5-ylmethoxy)-6,7-dihydro-pyrimido[6,1-a]isoquinolin-4-one], for which the IC50 at GPR84 [1] lay in the range of 0.01 to 100 nM.

For `O=c1nc(OCC2COc3ncccc3O2)cc2n1CCc1cc(C#CCCO)ccc1-2` (stereo not drawn) [compound 133, 2-(2,3-dihydro-[1,4]dioxino[2,3-b]pyridin-2-ylmethoxy)-9-(4-hydroxy-but-1-ynyl)-6,7-dihydro-pyrimido[6,1-a]isoquinolin-4-one], on GPR84 [1], the IC50 lay within 0.01 to 100 nM.

As for `CN(C)c1ccccc1-c1ccc2c(c1)CCn1c-2cc(OCC2COc3ncccc3O2)nc1=O` (stereo not drawn) [compound 130, 2-(2,3-Dihydro-[1,4]dioxino[2,3-b]pyridin-2-ylmethoxy)-9-(2-dimethylamino-phenyl)-6,7-dihydro-pyrimido[6,1-a]isoquinolin-4-one], the IC50 at GPR84 [1] was 100 to 500 nM.

For the compound `c1ccc2c(Cc3c[nH]c4ccccc34)c[nH]c2c1` [3,3′ di indolylmethane, reference compound], in the assay on human neutrophils, the “neutrophil chemotaxis induced by GPR84 agonists” value is listed as “induce neutrophil chemotaxis”.

The compound `O=c1nc(OCC2COc3ncccc3O2)cc2n1CCc1cc(C#CCNCc3ccccc3)ccc1-2` (stereo not drawn) [compound 193, 9-(3-benzylamino-prop-1-ynyl)-2-(2,3-dihydro-[1,4]dioxino[2,3-b]pyridin-2-ylmethoxy)-6,7-dihydro-pyrimido[6,1-a]isoquinolin-4-one] came in with an IC50 in the assay on human neutrophils of 0.01 to 100 nM.

Take `O=c1nc(OCC2CCCO2)cc2n1CCc1cc(OCCOc3ccccc3)ccc1-2` (stereo not drawn) [compound 15, 9-(2-phenoxy-ethoxy)-2-(tetrahydro-furan-2-ylmethoxy)-6,7-dihydro-pyrimido[6,1-a]isoquinolin-4-one]: the IC50 with human neutrophils is 0.01 to 100 nM.

Compound `O=c1nc(OCC2CCCO2)cc2n1CCc1cc(OCc3cccc([N+](=O)[O-])c3)ccc1-2` (stereo not drawn) [compound 32, 9-(3-nitro-benzyloxy)-2-(tetrahydro-furan-2-ylmethoxy)-6,7-dihydro-pyrimido[6,1-a]isoquinolin-4-one] yielded an IC50 in the assay on human neutrophils of 0.01 to 100 nM.

For `CC(C)(O)C#Cc1ccc2c(c1)CCn1c-2cc(OCC2COc3ncccc3O2)nc1=O` (stereo not drawn) [compound 136, 2-(2,3-dihydro-[1,4]dioxino[2,3-b]pyridin-2-ylmethoxy)-9-(3-hydroxy-3-methyl-but-1-ynyl)-6,7-dihydro-pyrimido[6,1-a]isoquinolin-4-one], the half-maximal inhibitory concentration (IC50) with human neutrophils lay within 0.01 to 100 nM.

In turn, `CC(O)C#Cc1ccc2c(c1)CCn1c-2cc(OCC2COc3ncccc3O2)nc1=O` (stereo not drawn) [compound 181, 2-(2,3-dihydro-[1,4]dioxino[2,3-b]pyridin-2-ylmethoxy)-9-(3-hydroxy-but-1-ynyl)-6,7-dihydro-pyrimido[6,1-a]isoquinolin-4-one] returned an IC50 in the assay on human neutrophils of 0.01 to 100 nM.

Compound `CCCC(O)C#Cc1ccc2c(c1)CCn1c-2cc(OCC2COc3ncccc3O2)nc1=O` (stereo not drawn) [compound 183, 2-(2,3-dihydro-[1,4]dioxino[2,3-b]pyridin-2-ylmethoxy)-9-(3-hydroxy-hex-1-ynyl)-6,7-dihydro-pyrimido[6,1-a]isoquinolin-4-one] yielded an IC50 in the assay on human neutrophils of 0.01 to 100 nM.

Turning to `O=c1nc(OC[C@@H]2COc3ncccc3O2)cc2n1CCc1cc(OCc3ncco3)ccc1-2` [compound 190], the IC50 in the assay with human neutrophils is 0.01 to 100 nM; at GPR84 [2], 100 to 500 nM.

Consider `O=c1nc(OCC2COc3ncccc3O2)cc2n1CCc1cc(CN3CCCCC3)ccc1-2` (stereo not drawn) [compound 199, 2-(2,3-dihydro-[1,4]dioxino[2,3-b]pyridin-2-ylmethoxy)-9-piperidin-1-ylmethyl-6,7-dihydro-pyrimido[6,1-a]isoquinolin-4-one], for which, in the assay on human neutrophils, the IC50 was in the range of 0.01 to 100 nM.

`CC1(COCc2ccc3c(c2)CCn2c-3cc(OCC3COc4ncccc4O3)nc2=O)COC1` (stereo not drawn) [compound 200, 2-(2,3-dihydro-[1,4]dioxino[2,3-b]pyridin-2-ylmethoxy)-9-(3-methyl-oxetan-3-ylmethoxymethyl)-6,7-dihydro-pyrimido[6,1-a]isoquinolin-4-one] registered an IC50 in the assay with human neutrophils of 0.01 to 100 nM.

With `O=c1nc(OCC2COc3ncccc3O2)cc2n1CCc1cc(OCc3ccccn3)ccc1-2` (stereo not drawn) [compound 91, 2-(2,3-dihydro-[1,4]dioxino[2,3-b]pyridin-2-ylmethoxy)-9-(pyridin-2-ylmethoxy)-6,7-dihydro-pyrimido[6,1-a]isoquinolin-4-one], in the assay with human neutrophils, the IC50 is 0.01 to 100 nM.
